These results are taken from US6649618B2, “Substituted amidoalkyl-uracils and their use” (Bayer Aktiengesellschaft, priority 2000, dated 2003).

Structures are written as SMILES. pEC50: −log10 of the molar value.

One may read the pEC50 as the EC50 on a negative log10 scale, so that one unit is a factor of ten. Usually melting point stands for the temperature, or range, at which the solid turns liquid.

The test system of the first series is MHEC5-T cells. As to the kind of experiment: Cell protection assay (in vitro), H2O2-induced cell death, Alamar blue. Format: cell-based. The conditions noted are these: MHEC5-T endothelial cells, 3 mM H2O2, 5 hours; 50% of maximum protection, 10 μM DHCH defined as 100%; read-out: EC50, cell protection (in vitro). The procedure:
2) Test Description Cell Protection Assay (in vitro)
In accordance with a method described by Bowes [Bowes et al., Br. J. Pharmacol., 124, 1760-1766 (1998)], the ability of PARS inhibitors to protect cells against cell death induced by incubation with H2O2 is examined in a cell protection assay. Incubation of endothelial cells with H2O2 results in the generation of DNA strand breaks which in turn activate PARS, resulting in a drastic energy decrease in the cells and in cell death. Living cells are quantified by a fluorimetric redox indicator (Alamar blue), which is converted in the electron transport system of the mitochondria.
Specifically, 7500 MHEC5-T cells/well (DSM ACC 336; German collection of microorganisms and cell cultures) are sown in 4 replications on a 96-well plate. After 24 hours, the cells are incubated with 3 mM aqueous H2O2 solution and differing concentrations of the substances in the presence of 6% by volume of Alamar blue solution in the medium at 37° C. for 5 hours. The reference substance used is 10 μM 1,5-dihydroxyisoquinoline (DHCH) solution. After the incubation, the fluorescence is measured at an excitation wavelength of 530-560 nm and an emission wavelength of 590 nm. The percentage for the cell protection is calculated as the difference between the living cells treated only with H2O2 and the cells treated with H2O2 and PARS inhibitors. The internal standard used is 10 μM DHCH, which is defined as 100% protection. The results obtained for the other substances are compared to this value.
The EC50 values indicate the concentration at which 50% of maximum cell protection is reached, maximum protection by 10 μM DHCH being defined as 100%. DHCH has an EC50 value of 2 μM.
(In general: Alamar Blue is a resazurin reagent that responds to reducing activity.)
Take `CN(CCCn1c2c(c(=O)[nH]c1=O)CSCC2)S(=O)(=O)c1ccccc1` [Example 2, N-[3-(2,4-Dioxo-3,4,7,8-tetrahydro-2H-thiopyrano[4,3-d]pyrimidin-1(5H)-yl)propyl]-N-methylphenylsulphonamide]: the pEC50 was 6.30.
On to `CN(CCCn1c2c(c(=O)[nH]c1=O)CCCC2)S(=O)(=O)c1cccnc1` [Example 55], for which the negative logarithm of the EC50 (pEC50) was 6.40.
For `CN(CCCn1c2c(c(=O)[nH]c1=O)CSCC2)S(=O)(=O)c1ccc2oc(=O)ccc2c1` [Example 57], the pEC50 was 6.52.
Consider `CN(CCCn1c2c(c(=O)[nH]c1=O)CSCC2)S(=O)(=O)c1ccc(F)cc1` [Example 58], for which the pEC50 was 6.40.
For `CN(CCCn1c2c(c(=O)[nH]c1=O)CSCC2)S(=O)(=O)c1cccnc1` [Example 59], the negative-log EC50 (pEC50) is 6.60.
For the molecule `CN(CCCn1c2c(c(=O)[nH]c1=O)CCCC2)S(=O)(=O)c1cccc2nsnc12` [Example 61], the negative logarithm of the EC50 (pEC50) is 6.30.
As to `CN(CCCn1c2c(c(=O)[nH]c1=O)CSCC2)S(=O)(=O)c1ccsc1[N+](=O)[O-]` [Example 67], the pEC50 was 7.30.

Still in this series, the particulars now being: MHEC5-T endothelial cells, 3 mM H2O2, 5 hours; reference substance; read-out: EC50 value, cell protection.
For the molecule `Oc1cccc2c(O)nccc12` [DHCH, 1,5-dihydroxyisoquinoline, reference compound], the negative-log EC50 (pEC50) is 5.70.

Tested on in a further series: not given
Experiment: not given
Conditions: not given
`O=C1CCCN1CCCn1c2c(c(=O)[nH]c1=O)CCCC2` [Example 1, 1-[3-(2-Oxo-1-pyrrolidinyl)propyl]-5,6,7,8-tetrahydro-2,4(1H,3H)-quinazolinedione]: the melting point was 189 °C.
For `O=c1[nH]c(=O)n(C2CCCC(NS(=O)(=O)c3ccc([N+](=O)[O-])cc3)C2)c2c1CCCC2` (centres unmarked) [Example 3, N-[3-(2,4-Dioxo-3,4,5,6,7,8-hexahydro-1(2H)-quinazolinyl)cyclohexyl]4-nitrobenzenesulphonamide], the melting point was more than 240 °C.
Molecule `O=c1ccc2cc(S(=O)(=O)NC3CCCC(n4c5c(c(=O)[nH]c4=O)CCCC5)C3)ccc2o1` (centres unmarked) [Example 51] showed a melting point of more than 240 °C.
In turn, `CN(CCCn1c2c(c(=O)[nH]c1=O)CCCC2)S(=O)(=O)c1cccc2nsnc12` [Example 61] returned a melting point of 170 °C.
Take `CN(CCCn1c2c(c(=O)[nH]c1=O)CCCC2)S(=O)(=O)c1c(Cl)nc2sccn12` [Example 62]: the melting point is more than 240 °C.
Take `CC(=O)Nc1nc(C)c(S(=O)(=O)N(C)CCCn2c3c(c(=O)[nH]c2=O)CCCC3)s1` [Example 63]: the melting point is more than 240 °C.
On to `CN(CCCn1c2c(c(=O)[nH]c1=O)CCCC2)S(=O)(=O)c1cn(C)cn1` [Example 65], for which the melting point amounted to 128 °C.

For a further series, the system named is cytochrome P450.
Experiment: not given
The conditions noted are these: Eriksson et al. 1996; cited from earlier work.
For `NC(=O)c1cccc(N)c1` [3-aminobenzamide], the “inhibition of cytochrome P450 (unspecific PARS inhibitor)” value is “inhibits cytochrome P450”.

Tested on in another series: not given
Experiment: not given
Conditions: Szabo and Dawson 1998; cited from earlier work.
Consider `Nc1ccc2oc(=O)ccc2c1I` [5-iodo-6-amino-1,2-benzopyrone], for which the side-effects result is recorded as “serious side-effects”.
